Activity calls are given as the source filed them.
Key:
[1] = growth inhibition of PfATP4-mutant resistant parasites – NITD609-resistant line, SYBR Green, dry powder, dose response (AID 1159571); type: functional, cell-based;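 further: parasites synchronized at ring stage by sorbitol before testing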
[2] = Dd2 malaria parasite growth inhibition potency – SYBR Green, dry powder samples, dose response (AID 1159566); type: functional, cell-based;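 further: potency for growth inhibition with lower SYBR green DNA signal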
[3] = P. falciparum Dd2 growth inhibitors, dose response, SYBR Green, cherry-picked samples (AID 1159567); type: functional, cell-based
[4] = toxicity to human HepG2 hepatoma cells – cell-based, plate reader, dry powder samples, cytotoxicity control, dose response (AID 1159569); type: functional;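 further: inhibitor potency with signal falling toward the positive control level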
[5] = toxicity to human hepatoma HepG2 cells – cell-based, cherry-picked samples, cytotoxicity control, dose response (AID 1159577); type: functional
[6] = growth inhibition of yeast DHODH-expressing 3D7 parasites – SYBR Green, dry powder samples, dose response (AID 1159570); type: functional, cell-based;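 further: parasite growth measured after 72 hours of compound exposure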
Estrogen receptor beta = Estrogen receptor beta (Homo sapiens, UniProt Q92731); experiment: blockers of SRC-3 recruitment to ERβ – biochemical, ELISA, streptavidin-HRP readout, orthogonal assay, confirmation (AID 1060)
cells [7] = type: functional
Cytochrome P450 2C9 = Cytochrome P450 2C9 (Homo sapiens, UniProt P11712)
Protein skinhead-1 = target: T1, Protein skinhead-1 (Caenorhabditis elegans, UniProt P34707); type: functional
T1 sequence (P34707 whole entry): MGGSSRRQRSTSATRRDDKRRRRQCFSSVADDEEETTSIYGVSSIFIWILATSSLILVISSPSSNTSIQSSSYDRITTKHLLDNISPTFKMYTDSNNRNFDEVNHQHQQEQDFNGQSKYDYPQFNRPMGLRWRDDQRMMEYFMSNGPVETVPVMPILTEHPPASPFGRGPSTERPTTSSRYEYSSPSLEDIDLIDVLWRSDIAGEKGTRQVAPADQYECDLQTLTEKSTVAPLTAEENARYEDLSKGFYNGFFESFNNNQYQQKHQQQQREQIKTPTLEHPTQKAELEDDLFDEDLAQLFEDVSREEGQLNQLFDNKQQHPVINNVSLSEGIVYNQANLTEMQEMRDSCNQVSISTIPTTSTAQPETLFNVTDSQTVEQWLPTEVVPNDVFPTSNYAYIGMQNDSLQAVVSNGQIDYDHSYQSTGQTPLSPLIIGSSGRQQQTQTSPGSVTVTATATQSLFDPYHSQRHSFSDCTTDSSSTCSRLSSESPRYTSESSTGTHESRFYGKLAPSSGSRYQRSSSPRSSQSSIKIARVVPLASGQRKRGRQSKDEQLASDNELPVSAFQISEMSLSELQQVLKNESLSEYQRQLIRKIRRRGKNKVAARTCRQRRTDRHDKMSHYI

[8] = target: T2, DNA repair and recombination protein RAD54-like (Homo sapiens, UniProt Q92698); experiment: RAD54 Holliday junction migration blockers – biochemical, fluorescence, cherry-picked samples, dose series, confirmation (AID 651657); type: functional
T2 sequence (Q92698 whole entry): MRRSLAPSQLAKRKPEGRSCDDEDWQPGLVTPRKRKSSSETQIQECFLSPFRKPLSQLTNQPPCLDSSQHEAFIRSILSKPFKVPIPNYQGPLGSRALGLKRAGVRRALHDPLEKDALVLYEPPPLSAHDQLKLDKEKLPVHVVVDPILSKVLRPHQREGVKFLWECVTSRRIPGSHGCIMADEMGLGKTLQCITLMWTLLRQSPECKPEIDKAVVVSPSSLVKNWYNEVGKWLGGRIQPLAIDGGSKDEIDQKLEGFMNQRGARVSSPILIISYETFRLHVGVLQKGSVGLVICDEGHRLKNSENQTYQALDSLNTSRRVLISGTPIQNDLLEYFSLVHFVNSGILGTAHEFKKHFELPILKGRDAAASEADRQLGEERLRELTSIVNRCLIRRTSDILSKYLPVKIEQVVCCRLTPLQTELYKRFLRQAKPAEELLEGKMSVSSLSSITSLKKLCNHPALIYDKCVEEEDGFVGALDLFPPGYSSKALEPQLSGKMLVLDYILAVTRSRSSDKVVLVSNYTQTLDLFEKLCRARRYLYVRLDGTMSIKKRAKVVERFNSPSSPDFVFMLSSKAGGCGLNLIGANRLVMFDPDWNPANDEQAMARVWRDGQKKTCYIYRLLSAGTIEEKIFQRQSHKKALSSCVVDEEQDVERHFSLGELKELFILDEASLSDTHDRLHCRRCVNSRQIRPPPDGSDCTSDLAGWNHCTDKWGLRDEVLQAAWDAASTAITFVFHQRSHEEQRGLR

[9] = viability of HCT116 lacking mutant beta-catenin – cell-based, human colon tumor, dose response (AID 1045); type: functional;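 further: HCT116 colon tumor cells with beta catenin knocked out; cells exposed to compound for 60 hours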
[10] = viability of PTEN-deleted HCT116 cells – cell-based, HCT116 PTEN knockout, dose response (AID 1047); type: functional;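 further: HCT116 colon tumor cells with PTEN knocked out; cells exposed to compound for 60 hours before readout; potency for loss of cell viability measured by luminescence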
cells [11] = experiment: cells
[12] = target: T3, Zinc finger protein mex-5 (Caenorhabditis elegans, UniProt Q9XUB2); experiment: potency of MEX-5 RNA-binding blockers – biochemical, C. elegans, fluorescence polarization, dose response (AID 1960)
T3 sequence (Q9XUB2 whole entry): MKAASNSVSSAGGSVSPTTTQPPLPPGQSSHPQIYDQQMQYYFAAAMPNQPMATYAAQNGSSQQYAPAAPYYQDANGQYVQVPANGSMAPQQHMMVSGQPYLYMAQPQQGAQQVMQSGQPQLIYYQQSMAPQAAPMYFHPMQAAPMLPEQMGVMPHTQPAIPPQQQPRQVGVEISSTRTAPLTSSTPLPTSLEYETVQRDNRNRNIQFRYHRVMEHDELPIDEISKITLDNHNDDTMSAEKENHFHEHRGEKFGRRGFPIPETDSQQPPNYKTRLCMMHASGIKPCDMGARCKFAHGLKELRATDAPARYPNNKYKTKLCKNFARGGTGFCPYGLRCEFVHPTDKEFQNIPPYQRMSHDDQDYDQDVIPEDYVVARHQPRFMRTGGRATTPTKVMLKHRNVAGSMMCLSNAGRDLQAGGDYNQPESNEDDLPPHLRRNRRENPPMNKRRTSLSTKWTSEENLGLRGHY

[13] = target: T4, RNA-binding protein pos-1 (Caenorhabditis elegans, UniProt G5EF15); experiment: disruptors of C. elegans POS-1 RNA interaction – biochemical, fluorescence polarization, dose response (AID 1964);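 further: purified POS-1 fused to maltose binding protein made in E. coli; potency of compounds blocking POS-1 binding to fluorescent RNA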
T4 sequence (G5EF15 whole entry): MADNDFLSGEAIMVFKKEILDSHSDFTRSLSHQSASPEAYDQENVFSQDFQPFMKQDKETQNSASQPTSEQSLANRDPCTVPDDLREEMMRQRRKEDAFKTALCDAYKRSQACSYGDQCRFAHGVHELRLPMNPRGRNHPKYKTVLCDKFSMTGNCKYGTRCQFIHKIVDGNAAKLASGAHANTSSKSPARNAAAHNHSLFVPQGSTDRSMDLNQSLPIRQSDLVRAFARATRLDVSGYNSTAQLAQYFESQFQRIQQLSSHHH

[14] = viability of uninfected HEp-2 cells – cell-based, HTS, cytotoxicity control for RSV inhibitor project, dose response (AID 2410); type: functional; details: human respiratory syncytial virus
[15] = NIH3T3 cell viability loss – ATP luminescence, mouse fibroblasts, counter-screen, dose response (AID 2010); type: functional, cell-based;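 further: cells exposed to compound for about 90 hours before reading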
[16] = Trypanosoma cruzi growth suppression in host cells – NIH3T3 host cells, beta-gal luminescence, confirmation (AID 2044); type: functional, cell-based;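 further: intracellular parasites grown in NIH/3T3 mouse fibroblasts as host cells; luminescent beta-galactosidase reporter signal from transgenic T. cruzi replicating inside host cells; inhibitors lower the luminescence signal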
Cytochrome P450 2C19 = Cytochrome P450 2C19 (Homo sapiens, UniProt P33261); experiment: Cytochrome panel assay with activity outcomes. Panel member name: p450-cyp2c19 Compounds with AC50 equal or less than 10 uM are considered active; type: functional
[17] = target: T5, DNA repair protein RAD52 homolog (Homo sapiens, UniProt P43351); type: functional, biochemical
T5 sequence (P43351 whole entry): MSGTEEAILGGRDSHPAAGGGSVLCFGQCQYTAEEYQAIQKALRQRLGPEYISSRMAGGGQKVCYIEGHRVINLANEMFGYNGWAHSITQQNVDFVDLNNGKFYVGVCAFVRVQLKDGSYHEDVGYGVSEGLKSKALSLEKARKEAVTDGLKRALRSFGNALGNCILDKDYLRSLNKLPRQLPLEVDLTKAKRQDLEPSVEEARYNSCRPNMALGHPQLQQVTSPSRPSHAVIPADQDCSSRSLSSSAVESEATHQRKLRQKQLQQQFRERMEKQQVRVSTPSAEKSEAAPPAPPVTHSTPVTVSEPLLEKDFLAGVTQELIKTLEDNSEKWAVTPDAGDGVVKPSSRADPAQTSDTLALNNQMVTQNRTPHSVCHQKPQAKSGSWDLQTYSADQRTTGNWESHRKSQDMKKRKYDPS

Cytochrome P450 1A2 = target: T6, Cytochrome P450 1A2 (Homo sapiens, UniProt P05177);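 further: PubChem cytochrome P450 panel assay, CYP1A2 panel member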
T6 sequence (P05177 whole entry): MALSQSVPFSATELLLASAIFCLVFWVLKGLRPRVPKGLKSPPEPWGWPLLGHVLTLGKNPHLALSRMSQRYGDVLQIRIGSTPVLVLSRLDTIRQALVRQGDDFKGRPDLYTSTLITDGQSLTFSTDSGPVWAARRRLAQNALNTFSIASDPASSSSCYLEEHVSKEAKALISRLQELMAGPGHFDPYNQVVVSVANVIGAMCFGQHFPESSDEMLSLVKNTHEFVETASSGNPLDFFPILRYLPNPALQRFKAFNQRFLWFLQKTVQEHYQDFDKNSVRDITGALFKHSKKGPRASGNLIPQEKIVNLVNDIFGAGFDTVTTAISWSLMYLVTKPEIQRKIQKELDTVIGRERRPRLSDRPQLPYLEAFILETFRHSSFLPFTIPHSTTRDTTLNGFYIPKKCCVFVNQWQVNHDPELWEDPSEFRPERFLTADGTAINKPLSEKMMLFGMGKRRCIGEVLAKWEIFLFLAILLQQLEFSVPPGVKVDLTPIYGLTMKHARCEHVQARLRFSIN

Cytochrome P450 3A4 = Cytochrome P450 3A4 (Homo sapiens, UniProt P08684);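 further: CYP3A4 tested as one member of a cytochrome P450 panel screen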
Cytochrome P450 3A4, sequence (P08684 whole entry): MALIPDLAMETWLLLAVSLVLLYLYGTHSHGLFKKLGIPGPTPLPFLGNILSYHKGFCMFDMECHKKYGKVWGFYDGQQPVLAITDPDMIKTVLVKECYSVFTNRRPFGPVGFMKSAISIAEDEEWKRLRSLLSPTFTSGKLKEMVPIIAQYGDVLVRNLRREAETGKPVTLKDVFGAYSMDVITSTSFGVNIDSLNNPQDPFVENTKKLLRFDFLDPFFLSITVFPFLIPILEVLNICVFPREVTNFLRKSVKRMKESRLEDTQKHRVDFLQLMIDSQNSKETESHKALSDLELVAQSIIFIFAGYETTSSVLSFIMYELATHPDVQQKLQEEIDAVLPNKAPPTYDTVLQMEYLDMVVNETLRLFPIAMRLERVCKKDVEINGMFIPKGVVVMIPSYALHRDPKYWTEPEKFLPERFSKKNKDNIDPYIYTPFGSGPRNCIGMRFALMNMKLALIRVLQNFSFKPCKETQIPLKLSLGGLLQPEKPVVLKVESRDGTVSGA

Cytochrome P450 2C9, sequence (P11712 whole entry): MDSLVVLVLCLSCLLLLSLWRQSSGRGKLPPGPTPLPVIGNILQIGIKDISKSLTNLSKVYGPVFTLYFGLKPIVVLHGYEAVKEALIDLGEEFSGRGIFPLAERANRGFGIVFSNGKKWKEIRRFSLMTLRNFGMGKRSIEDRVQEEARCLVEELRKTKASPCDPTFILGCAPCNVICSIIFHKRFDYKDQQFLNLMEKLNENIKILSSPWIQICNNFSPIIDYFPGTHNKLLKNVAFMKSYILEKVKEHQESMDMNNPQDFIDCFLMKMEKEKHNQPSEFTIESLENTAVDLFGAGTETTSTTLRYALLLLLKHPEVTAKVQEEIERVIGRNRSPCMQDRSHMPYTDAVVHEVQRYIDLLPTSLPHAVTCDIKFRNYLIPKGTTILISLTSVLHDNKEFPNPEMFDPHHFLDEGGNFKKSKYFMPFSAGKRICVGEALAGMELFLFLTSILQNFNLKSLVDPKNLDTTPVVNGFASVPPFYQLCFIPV
Estrogen receptor beta, sequence (Q92731 whole entry): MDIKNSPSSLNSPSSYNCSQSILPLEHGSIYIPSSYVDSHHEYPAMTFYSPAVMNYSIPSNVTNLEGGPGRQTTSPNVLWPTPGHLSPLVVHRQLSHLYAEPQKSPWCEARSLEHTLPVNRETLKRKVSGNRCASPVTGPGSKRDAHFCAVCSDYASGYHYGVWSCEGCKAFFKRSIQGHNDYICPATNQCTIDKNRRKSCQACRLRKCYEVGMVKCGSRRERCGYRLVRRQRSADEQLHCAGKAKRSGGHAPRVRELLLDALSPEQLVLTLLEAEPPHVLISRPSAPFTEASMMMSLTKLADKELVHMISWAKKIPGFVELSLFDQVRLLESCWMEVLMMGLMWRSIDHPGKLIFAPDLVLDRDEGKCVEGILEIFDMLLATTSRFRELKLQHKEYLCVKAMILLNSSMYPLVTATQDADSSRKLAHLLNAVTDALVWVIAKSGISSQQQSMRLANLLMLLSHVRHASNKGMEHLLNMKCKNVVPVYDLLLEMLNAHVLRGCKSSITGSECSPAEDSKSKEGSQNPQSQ
Cytochrome P450 2C19, sequence (P33261 whole entry): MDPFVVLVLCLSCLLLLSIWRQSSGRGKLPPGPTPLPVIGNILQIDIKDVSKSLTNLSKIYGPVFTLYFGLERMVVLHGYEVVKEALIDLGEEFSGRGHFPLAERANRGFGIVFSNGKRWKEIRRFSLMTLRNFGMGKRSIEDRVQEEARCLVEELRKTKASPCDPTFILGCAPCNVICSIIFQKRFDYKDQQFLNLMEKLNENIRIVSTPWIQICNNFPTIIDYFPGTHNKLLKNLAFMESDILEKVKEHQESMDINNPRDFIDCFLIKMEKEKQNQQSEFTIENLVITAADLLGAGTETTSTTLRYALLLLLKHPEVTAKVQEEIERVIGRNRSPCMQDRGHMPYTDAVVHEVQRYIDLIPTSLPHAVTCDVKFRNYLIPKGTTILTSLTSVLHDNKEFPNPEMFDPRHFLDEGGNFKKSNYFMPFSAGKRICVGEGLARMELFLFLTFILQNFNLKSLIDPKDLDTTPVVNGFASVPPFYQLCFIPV

C/C=C/c1ccc([C@H]2[C@@H]3CN(C(=O)Nc4ccc(C(F)(F)F)cc4)C[C@H]2N3)cc1
AC50 [1]: 4.31 µM (active)
AC50 [2]: 5.42 µM (active)
AC50 [3]: 3.42 µM (active)
AC50 [4]: 25.8 µM (active)
AC50 [5]: 25.2 µM (active)
AC50 [6]: 4.43 µM (active)

COCCCn1c(Cc2csc(Nc3cccc(Cl)c3)n2)nnc1SCC(=O)OC
IC50 (Estrogen receptor beta): 17 µM (not active)

O=C(Nc1nnc(-c2ccc(Br)cc2)o1)C1=COCCO1
IC50 (cells [7]): 5.97 µM (active)

CCN(CC)S(=O)(=O)c1cccc2c(N(C)C)cccc12
AC50 (Cytochrome P450 2C9): inconclusive
IC50 (Protein skinhead-1): > 100 µM (inactive)

c1ccc(-c2nnc(SCc3nnc(-c4cccs4)o3)o2)cc1
IC50 (cells [7]): 30.4 µM (active)

CSCCOC(=O)COc1ccc(/C=N/NC(=O)c2c(Cl)cnn2C)cc1
IC50 (cells [7]): 4.7 µM (active)

CCN(CC)CCNC(=O)c1cc2c(-c3ccc(Cl)cc3)nn(C)c2s1
AC50 [8]: 6.7 µM (active)
EC50 [9]: 4.09 µM (active)
EC50 [10]: 5.5 µM (active)

CSc1ccccc1NC(=O)c1cc(C(C)C)on1
IC50 (cells [7]): 27.9 µM (active)

CN1CCN(c2nc(-c3cccc([N+](=O)[O-])c3)nc3ccccc23)CC1
AC50 [8]: 7.36 µM (active)

CC1CCCC(C)N1CC(=O)Nc1sc2c(c1C#N)CCC2 (centres undefined)
IC50 (Estrogen receptor beta): 22.5 µM (not active)

CCCC(=O)Nc1ccc(-c2nc3cc(C)c(C)cc3o2)cc1
IC50 (cells [11]): 48.2 µM (active)

CC(=N)/C(C#N)=C(/O)CSc1ncnc2ccccc12
EC50 [12]: 8.02 µM (active)
EC50 [13]: > 300 µM (not active)
IC50 (cells [11]): 17.9 µM (active)

COc1ccc(C(=O)N2CC(c3ccc(Cl)cc3)CC2=O)cc1 (centres undefined)
IC50 (cells [11]): 31.5 µM (active)

N#Cc1nc(-c2cccc3ccccc23)oc1N
CC50 [14]: > 50 µM (active)
IC50 (cells [11]): 23.2 µM (active)

CCOC(=O)N/N=C(/C)c1ccc([N+](=O)[O-])o1
EC50 [15]: > 30 µM (not active)
EC50 [16]: 0.589 µM (active)
AC50 (Cytochrome P450 2C9): inconclusive
AC50 (Cytochrome P450 2C19; read-out: AC50): 25.1 µM (inconclusive)

COc1cccc2sc3cc(NCCCN4CCOCC4)ccc3c(=O)c12
AC50 [8]: 10.6 µM (active)
AC50 [17]: 5.68 µM (active)

COc1ccc2c3c(n(C)c2c1)[C@@H](CO)N(Cc1ccccc1OC)CC31CCN(CC2CC2)CC1
AC50 [1]: 1.07 µM (active)
AC50 [2]: 0.522 µM (active)
AC50 [3]: 1.29 µM (active)
AC50 [4]: 34.5 µM (active)
AC50 [5]: > 39 µM (inactive)
AC50 [6]: 2.52 µM (active)

O=C(c1ccccc1)N(Cc1ccco1)C1CCS(=O)(=O)C1 (centres undefined)
AC50 (Cytochrome P450 2C9): inconclusive
AC50 (Cytochrome P450 2C19; read-out: AC50): 31.6 µM (inconclusive)

COc1ncc2nc(C)c(=O)n(CCC#N)c2n1
AC50 (Cytochrome P450 2C9): inconclusive
AC50 (Cytochrome P450 2C19): inconclusive
AC50 (Cytochrome P450 1A2): 15.8 µM (inconclusive)

O=C(N/N=C/c1cccc(F)c1)c1csc2c1CCCC2
AC50 (Cytochrome P450 2C9): inconclusive
AC50 (Cytochrome P450 3A4): 15.8 µM (inconclusive)

OC(COc1ccc(C2C=CCC2)cc1)CN1CCCCC1 (centres undefined)
IC50 (Estrogen receptor beta): 13.1 µM (not active)
EC50 [9]: 32 µM (active)
EC50 [10]: 40.2 µM (active)

COc1cc(C(=O)NCCC(C)C)c([N+](=O)[O-])cc1OC
AC50 (Cytochrome P450 2C9): inconclusive

NCc1csc(Nc2nncc3ccccc23)n1
AC50 [8]: 23.7 µM (active)
